Reference: patent US4496591A, “Insecticidal bis-carbamate sulfides” (priority 1981, dated 1985)

Key:
Assay type in all cases: in vivo
[1] = test system: housefly adults (Musca domestica); test: Comparative residual effect in soil
Method: Selected species of the new compounds were evaluated for their residual pesticidal activity in soil. […] The residual activity test were conducted using five to seven-day old housefly adults (Musca domestica).
The soil mixture used was one part agricultural soil and three parts sand. The agricultural soil was stored in plastic bags in a freezer, immediately after removal from the field. This was done to reduce microbial multiplication. Two weeks prior to use, the soil was thawed and held at room temperature to allow microbial population to equilibrate. The sand and soil were sifted to remove clumps and debris and were then blended by rolling on a roller mill in a closed metal container. The moisture level was adjusted to 15% by weight.
The concentration in the soil of the compound to be tested was four times the amount (in parts per million) necessary to achieve a mortality rate of 50% on contact with the soil (LD50). This is in accordance with the procedure developed by C. R. Harris of the Research Institute, Canadian Department of Agriculture, London, Ontario. Such procedure is disclosed in "Biological Activity of Chloropyrifos, Chlorpyrifor-Methyl, Phorate, and Counter® in Soil", The Canadian Entomologist, Vol. 109, pp. 1115-1120 (August 1977); and in "Laboratory Studies on the Persistance of Biological Activity of Some Insecticides in Soils", Journal of Economic Entomology, Vol. 62, No. 6, pp. 1437-1441 (December 1969).
An appropriate amount of compound was dissolved in an acetone--Triton solution and was diluted with water. Five mililiters of the formulated chemical was applied to four ounces of soil mixture and rolled in a 16-ounce glass jar to blend the compound evenly with the soil. Ten mililiters of granular cane sugar was then mixed thoroughly with the treated soil in an eight-ounce plastic container.
Twenty-five housefly adults, anesthetized with CO2, were then transferred to the soil and were covered with a perforated plastic lid. The test containers were held for 24 hours in a constant environment at a temperature of 80±5° F. and a relative humidity of […]. Mortality was based on the ability of the fly to move in a normal manner without spinning.
The above process was repeated on treated soil which had been incubated at 25° C. and 90% relative humidity for 1, 4, 6 and 8 weeks after initial exposure. This was necessary because the soil is incubated without sugar, sugar being added at the time of reinfestation. For this reason, appropriate volumes of soil had to be treated at the start of the soil test to last for the expected residual period.

[2] = test system: Mexican bean beetle (Epilachna varivestis, Muls.) larvae; test: Mexican bean beetle leaf spray test; design: key: A: excellent control; B: partial control; C: no control at 500 ppm; settings: 500 parts per million, fourth instar larvae, three days
Method: (§1) Suspensions of the test compounds were prepared by dissolving one gram of compound in 50 milliliters of acetone in which had been dissolved 0.1 gram (10 percent of the weight of compound) of an alkylphenoxy polyethoxyethanol surfactant, as an emulsifying or dispersing agent. The resulting solution was mixed into 150 milliliters of water to give roughly 200 milliliters of a suspension containing the compound in finely divided form. The thus-prepared stock suspension contained 0.5 percent by weight of compound. The concentrations in parts per million by weight employed in the tests described hereinbelow were obtained by appropriate dilutions of the stock suspension with water. The test procedures were as follows:
Fourth instar larvae of the Mexican bean beetle (Epilachna varivestis, Muls.), reared on Tendergreen bean plants at a temperature of 80±5° F. and 50±5° F. percent relative humdity, were the test insects.
The test compounds were formulated by diluting the stock suspension with water to give a suspension containing 500 parts of test compound per million parts of final formulation. Tendergreen bean plants of standard height and age were placed on a revolving turntable and sprayed with 100-110 milliliters of test compound formulation by use of a DeVilbiss spray gun set at 40 psig air pressure. This application, which lasted 25 seconds, was sufficient to wet the plants to run-off. As a control, 100-110 milliliters of a water-acetone-emulsifier solution containing no test compound was also sprayed on infested plants. When dry, the paired leaves were separated and each was placed in a 9 centimeter Petri dish lined with moistened filter paper. Five randomly selected larvae were introduced into each dish, and the dishes were closed. The closed dishes were labeled and held at a temperature of 80±5° F., for three days. Although the larvae could easily consume the leaf within 24 to 48 hours, no more food was added. Larvae which were unable to move the length of the body, even upon stimulation, were considered dead.
(§2) In these tests the pesticidal activity of the compounds at the indicated dosage rate against aphid, Southern Armyworm, Bean Beetle and housefly was rated as follows: […]

[3] = test system: house flies (Musca domestica, L.); test: Fly bait test; design: key: A: excellent control; B: partial control; C: no control at 500 ppm; settings: 500 parts per million, sugar bait, twenty-four hours
Method: as §1
Four to six day old adult house flies (Musca domestica, L.), reared according to the specifications of the Chemical Specialties Manufacturing Association (Blue Book, McNair-Dorland Co., N.Y. 1954; pages 243-244, 261) under controlled conditions of 80±5° F. and 50±5 percent relative humidity, were the test insects. The flies were immobilized by anesthetizing them with carbon dioxide. Twenty-five immobilized individuals, males and females, were transferred to a cage consisting of a standard food strainer about five inches in diameter which was inverted over a wrapping-paper-covered surface. The test compounds were formulated by diluting the stock suspension with a 10 percent (by weight) sugar solution to give a suspension containing 500 parts of test compound per million parts of final formulation, by weight. Ten milliliters of the test formulation were added to a souffle cup containing a one-inch square of an absorbent cotton pad. This bait cup was introduced and centered on the blotting paper under the food strainer prior to admitting the anesthetized flies. The caged flies were allowed to feed on the bait for twenty-four hours, at a temperature of 80±5° F. and at a relative humidity of 50±5 percent.
as §2

CSC(C)=NOC(=O)N(C)SN(C)C(=O)Oc1cccc(C=O)c1 [Compound 3]
Residual effect in soil (mortality), 0 weeks ([1]; 0 weeks, soil concentration four times LD50, housefly, 24 hours): 100
Residual effect in soil (mortality), 1 week ([1]; 1 week, soil concentration four times LD50, 25° C., 90% relative humidity, 10080 min): 100
Residual effect in soil (mortality), 4 weeks ([1]; 4 weeks, soil concentration four times LD50, 25° C., 90% relative humidity, 40320 min): 73
Residual effect in soil (mortality), 8 weeks ([1]; 8 weeks, soil concentration four times LD50, 25° C., 90% relative humidity, 80640 min): 40
Residual Activity (weeks) ([1]; soil concentration four times LD50, housefly): 4-8 weeks
Mexican Bean Beetle, pesticidal activity rating [2]: A
Housefly, pesticidal activity rating [3]: A
